This note sets out measurements from ChEMBL document CHEMBL4190354, “A Realistic View on "The Essential Medicinal Chemistry of Curcumin"” (ACS Med Chem Lett, 2017).

Series [1] is described as follows: Elimination half life in Sprague-Dawley rat at 10 mg/kg, iv by LC-MS/MS analysis. To be noted: in vivo, read-out: beta t1/2. In kind it is ADME, organism-based.
The nature of series [2]: Elimination half life in Sprague-Dawley rat at 500 mg/kg, po by LC-MS/MS analysis. In kind it is ADME, organism-based. To be noted: in vivo, read-out: beta t1/2.

As for `COc1cc(/C=C/C(=O)CC(=O)/C=C/c2ccc(O)c(OC)c2)ccc1O` [CURCUMIN], the values for the half-life in series [1] and in series [2] were 28.1 min and 44.5 min, respectively.
